This note sets out measurements from patent US5459142A, “Pyrazinyl and piperazinyl substituted pyrazine compounds” (Otsuka Pharmaceutical Co., Ltd., priority 1991, dated 1995).

Values after ≈ are worked out from the molar mass of the structure shown.

The test system of test [1] is superoxide radicals (O2^-) released from peritoneal macrophage cells of guinea pig. The test is described as follows: Inhibitory effect against superoxide radicals released from peritoneal macrophage cells of guinea pig by stimulation (FMLP), cytochrome C reduction. It counts as cell-based. To be noted: Cavia porcellus, Peritoneal macrophage cell; guinea pig peritoneal macrophages 2×10^6 cells/ml; FMLP 10^-7 M; 37° C.; OD550; read-out: IC50 (superoxide radical release). How it is done:
Inhibitory effect against superoxide radicals released from the peritoneal macrophage cells of guinea pig by stimulation:
Mineral oil (15 ml) was intraperitoneally administered to a guinea pig, then 96 hours after the administration, the peritoneal macrophage cells were sampled.
Superoxide radicals (O2^-) were determined by means of reduction of cytochrome C method according to the procedure described in an article written by T. Matsumoto, K. Takeshige and S. Minakami: Biochemical and Biophysical Research Communications, Vol. 88, No. 3, pp. 974-979, (1979).
The peritoneal macrophage cells were added to make the final concentration of 2×10^6 cells/ml into ml of 80 μM-cytochrome C solution, and the test compound of pyrazine derivative of the present invention was added thereto to make the test group sample. On the other hand, water was added in place of the test compound of the present invention to make the control group sample. Each of the test group sample and the control group sample was subjected to pre-incubation at 37° C. for 1 minute.
As to the stimulating agent for releasing superoxide radicals (O2^-), FMLP (formylmethionyl leucyl phenylalanine) was added to make the final concentration thereof to 10^-7 M, to each of the test group sample and the control group sample. Then both samples were subjected to additional reaction by incubation for 1 minute.
Difference of the optical absorbances measured at 550 nm (OD550) of both test group and control group samples were determined, and the 50% inhibitory concentration (IC50) was obtained by calculating as the ratio of OD550 of the test group sample to that of the control group sample.

Test [2] concerns releasing of hydrogen peroxide (H2O2) from the neutrocytes of rat abdominal cavity. Briefly: Inhibitory effect against the releasing of hydrogen peroxide (H2O2) from the neutrocytes of rat abdominal cavity. It is filed as cell-based, SD-strain rat. To be noted: rat neutrocytes 10^6 cells/ml; FMLP 2×10^-6 M; 37° C., 1 hour; OD510. Here is the method: Inhibitory effect against the releasing of hydrogen peroxide (H2 O2) from the neutrocytes of rat abdominal cavity
1) 1%-Casein solution was administered to the adbominal cavity of a SD-strain rat, then 16 hours after the administration, the neutrocytes were obtained by washing the abdominal cavity. Thus obtained neutrocytes were washed with Hank's solution.
2) The formulation of the reaction mixture(*) was as follows: […]
______________________________________
Rat neutrocytes 10^6 cells/ml
Text compound was added to the reaction mixture, then the whole mixture was incubated at 37° C. for 1 hour.
3) Next, the reacted mixture was subjected to centrifugal separation at 2,000 rpm for 10 minutes, then ml of the supernatant liquor was taken as a sample and microliters of 1N-NaOH solution was added thereto.
4) The optical absorbance at 510 nm (OD510) was determined by means of using a spectrophotometer. The 50% inhibitory concentration was obtained by calculating as the ratio of OD510 of the test group sample to that of the control group sample.

Test [3] concerns releasing of lysosome from the neutrocytes of rat. Briefly: Inhibitory effect against the releasing of lysosome from the neutrocytes of rat. It counts as cell-based. To be noted: rat neutrocytes 5×10^5 cells/ml; 10^-6 M FMLP and 5 μg/ml cytochalasin B; OD540. Here is the method:
Inhibitory effect against the releasing of lysosome from the neutrocytes of rat
The neutrocytes of rat were sampled from the abdominal cavity of the rat 16 hours after the administration of 10 ml of 1%-casein solution (physiological saline solution).
Reaction of the releasing of lysosome from the neutrocytes of rat was determined by means of the method as described in an article written by T. Matsumoto, K. Takeshige and S. Minakami: Biochemical and Biophysical Research Communications, Vol. 88, No. 3, pp. 974-979, (1979).
The neutrocytes being sampled were added to Hank's solution so as to make the concentration thereof as 5×10^5 cells/ml, and the test compound of pyrazine derivative of the present invention was added thereto to make the test group sample. On the other hand, water as added in place of the pyrazine derivative of the present invention to make the control group sample. Each of the test group sample and the control group sample was subjected to pre-incubation at 37° C. for 1 minute.
As to the stimulating agents, 10^-6 M of FMLP (formylmethionyl leucyl phenylalanine) and 5 μg/ml of cytochalasin B were added to the solution. […] After the reaction, 1N-NaOH solution was added to the reaction mixture so as to make the pH value thereof to pH 8 to 9, and the optical absorbance of both test group samples and control group samples were determined at 540 nm (OD540). […]

For orientation: IC50 means the concentration needed to halve the response being measured. Consider `COc1cccc(NC(=O)c2[nH]c(=O)c(CC(C)C)[n+]([O-])c2OC)c1` [Example 2], for which the IC50 in test [1] amounted to 40 µg/mL (≈ 115 µM).

For the compound `COc1c(C(=O)Nc2cccc(SC)c2)[nH]c(=O)c(CC(C)C)[n+]1[O-]` [Example 3], the 50% inhibitory concentration (IC50) in test [1] turned out to be 20 µg/mL (≈ 55 µM). On to `COc1c(C(=O)Nc2ccc3c(c2)OCO3)[nH]c(=O)c(CC(C)C)[n+]1[O-]` [Example 4], for which, in test [1], the IC50 is 56 µg/mL (≈ 155 µM).

Turning to `COc1c(C(=O)Nc2cc(C(C)(C)C)c(O)c(C(C)(C)C)c2)[nH]c(=O)c(CC(C)C)[n+]1[O-]` [Example 5], the results for the IC50 in test [2] and in test [1] were 60 µg/mL (≈ 135 µM) and 17 µg/mL (≈ 38.2 µM), respectively. As to `COc1c(C(=O)Nc2ccccc2-c2ccccc2)[nH]c(=O)c(CC(C)C)[n+]1[O-]` [Example 6], the figures for the IC50 in test [3] and in test [1] were 20 µg/mL and 3 µg/mL (≈ 7.62 µM), respectively. The corresponding values for `COc1c(C(=O)Nc2nc3ccccc3s2)[nH]c(=O)c(CC(C)C)[n+]1[O-]` [Example 7] are 16 µg/mL and 18 µg/mL (≈ 48.1 µM). Consider `COc1ccc2nc(NC(=O)c3[nH]c(=O)c(CC(C)C)[n+]([O-])c3OC)sc2c1` [Example 8], for which, in test [1], the IC50 is 10 µg/mL (≈ 24.7 µM). Same read-out and setting: under `COc1cccc(CNC(=O)c2[nH]c(=O)c(CC(C)C)[n+]([O-])c2OC)c1` [Test compound 1, 3-Isobutyl-5-methoxy-6-[N-(3-methoxybenzyl)]-carbamoyl-1,2-dihydropyrazin-2-one 4-oxide] stands 30 µg/mL (≈ 83 µM).
